The values that follow come from US20040068762A1, “Transgenic non-human mammals expressing a reporter nucleic acid under the regulation of androgen response elements” (priority 2002, published 2004).

Where two headings read alike, the source gives them in different places.

For the assay, the system named is androgen receptor.

On to `C[C@]12CC[C@H]3[C@@H](CCC4=CC(=O)CC[C@@]43C)[C@@H]1CC[C@@H]2O` [testosterone], for which the “luciferase induction over untreated” value (bone, testosterone 2 mg/kg s.c.) was determined as 3.3 fold; the “luciferase induction over untreated” value (prostate-seminal vesicles, testosterone 2 mg/kg s.c.) is 5.6 fold; the “luciferase induction over untreated” value (quadriceps, testosterone 2 mg/kg s.c.) is 5.8 fold. Also, where the note is “kidney, testosterone 2 mg/kg s.c.”, the “luciferase response in kidney (testosterone induction)” value is given as “No response”.

For the molecule `CC(O)(CS(=O)(=O)c1ccc(F)cc1)C(=O)Nc1ccc(C#N)c(C(F)(F)F)c1` (centres unmarked) [bicalutamide], the “inhibition of the testosterone effect (luciferase expression)” value is 86% (bone, Casodex 50 mg/kg p.o. with testosterone 2 mg/kg s.c.); 90% (prostate-seminal vesicles, Casodex 50 mg/kg p.o. with testosterone 2 mg/kg s.c.); 92% (quadriceps, Casodex 50 mg/kg p.o. with testosterone 2 mg/kg s.c.). In addition, for the setting “kidney, Casodex 50 mg/kg p.o. with testosterone 2 mg/kg s.c.”, the “luciferase response in kidney (inhibition of testosterone effect)” value was “No response”.
